Assay results taken from paper PMC8482815, “Targeting Host Glycolysis as a Strategy for Antimalarial Development” (Frontiers in Cellular and Infection Microbiology, 2021).
Several values for one entry are separate records, joined by “and”; a condition that tells them apart may be missing. Identical values can stand only once.

Test system: human erythrocytes
Experiment: Untargeted metabolomics and 13C-glucose tracing of enolase inhibitor treated erythrocytes
Type: cell-based
Conditions: 1h
Method: Freshly collected erythrocytes were washed, resuspended to 10% hematocrit in buffer [25mM HEPES (pH 7.4), 120mM NaCl, 5.4mM KCl, 1.8mM CaCl2, and 1mM NaH2PO4], incubated for 1 hour at 37°C, then centrifuged at 2000xg for 5 minutes at 4°C, resuspended in fresh wash buffer to 30-40% hematocrit, and split into 210µL aliquots of packed erythrocytes. […] All samples were incubated at 37°C shaking at 500 RPM. Triplicate samples of supernatants and packed erythrocytes were collected at 0, 0.5, 1, and 6-hour intervals and snap-frozen in liquid N2.
RBC and media samples were extracted at 1:10 and 1:20 dilutions, respectively, in 5:3:2 MeOH : MeCN:H2O v/v/v, and supernatants analyzed on a Thermo Vanquish UHPLC coupled to a Thermo Q Exactive mass spectrometer, as extensively described ([Nemkov et al., 2015]; [Nemkov et al., 2017]). The extraction buffer was supplemented with 40uM 3-^13C lactate to allow absolute quantification of lactate isotopologues, including lactate generated via glycolysis ([1,2,3-^13C3] enriched) vs. the pentose phosphate pathway ([2,3-^13C2] enriched), as described ([Reisz et al., 2016]). Metabolite assignments, peak area integration and isotopologues distributions were determined using Maven (Princeton University) ([Nemkov et al., 2015]; [Nemkov et al., 2017]).
Data were auto-scaled and normalized to zero-hour time points. Metabolites were removed from the dataset if greater than 50% of the samples contained missing values or the relative standard deviation among replicates exceeded 25%. Additionally, data was filtered using the interquartile range to reduce near-constant values from the experiment by 5%.
A principal component analysis of preprocessed data was plotted with the 95% confidence interval minimum volume enclosing ellipsoid for each respective group (MetaboAnalyst, cluster, plotly). A two-way repeated measures analysis of variance (ANOVA) was performed with multiple comparisons corrected for using a false discovery rate p-value cutoff of 0.05. Metabolite-Pathway analysis was performed using the R package of MetaboAnalyst, as previously described ([Xia and Wishart, 2010]). Metabolite-Protein nodal analysis was performed using omicsnet.ca and as previously described ([Zhou and Xia, 2018]).

[1] = treated erythrocytes, one value per replicate sample, polarity +
[2] = treated erythrocytes, one value per replicate sample, polarity -
[3] = treated erythrocytes, replicate samples

CC(C)(C)C(=O)OCOP(=O)(OCOC(=O)C(C)(C)C)C1CC(O)N(O)C1=O (stereo not shown) [POMSF]
AMP level (metabolomics signal) (replicate samples): 2.14E+06 and 1.66E+06 and 1.77E+06 | ATP level (metabolomics signal) (replicate samples): 1.57E+04 and 2.82E+04 and 2.26E+04 | Adenine level (metabolomics signal) (replicate samples): 1.34E+05 and 1.22E+05 and 1.52E+05 | Cytosine level (metabolomics signal) (replicate samples): 3.68E+05 and 3.33E+05 and 3.22E+05 | L-alanine level (metabolomics signal) (replicate samples): 8.35E+06 and 9.14E+06 and 1.12E+07 | L-arginine level (metabolomics signal) (replicate samples): 1.02E+07 and 1.01E+07 and 0.00E+00 | L-asparagine level (metabolomics signal) (replicate samples): 7.51E+06 and 6.72E+06 and 7.84E+06 | L-aspartate level (metabolomics signal) (replicate samples): 3.12E+07 and 3.26E+07 and 2.90E+07 | L-cysteine level (metabolomics signal) (replicate samples): 1.80E+06 and 1.83E+06 and 5.70E+05 | L-glutamate level (metabolomics signal) (replicate samples): 3.18E+07 and 2.68E+07 and 2.49E+07 | L-glutamine level (metabolomics signal) (replicate samples): 8.50E+07 and 9.01E+07 and 8.26E+07 | L-histidine level (metabolomics signal) (replicate samples): 1.59E+06 and 1.54E+06 and 1.57E+06 | L-isoleucine level (metabolomics signal) (replicate samples): 1.27E+07 and 1.24E+07 and 1.09E+07 | L-leucine level (metabolomics signal) (replicate samples): 2.27E+08 and 2.54E+08 and 2.31E+08 | L-lysine level (metabolomics signal) (replicate samples): 2.40E+06 and 2.03E+06 and 1.89E+06 | L-methionine level (metabolomics signal) (replicate samples): 2.24E+07 and 2.35E+07 and 2.22E+07 | L-phenylalanine level (metabolomics signal) (replicate samples): 1.58E+07 and 1.49E+07 and 1.43E+07 | L-proline level (metabolomics signal) (replicate samples): 6.58E+07 and 5.90E+07 and 5.39E+07 | L-serine level (metabolomics signal) (replicate samples): 4.64E+06 and 5.26E+06 and 6.00E+06 | L-threonine level (metabolomics signal) (replicate samples): 8.46E+06 and 8.55E+06 and 8.85E+06 | L-tryptophan level (metabolomics signal) (replicate samples): 5.00E+06 and 4.41E+06 and 4.35E+06 | L-tyrosine level (metabolomics signal) (replicate samples): 2.58E+07 and 2.87E+07 and 2.75E+07 | L-valine level (metabolomics signal) (replicate samples): 1.53E+08 and 1.47E+08 and 1.51E+08 | dCMP level (metabolomics signal) (replicate samples): 1.51E+04 and 1.42E+04 and 1.15E+04 | dTMP level (metabolomics signal) (replicate samples): 1.28E+06 and 1.27E+06 and 1.22E+06 | glycine level (metabolomics signal) (replicate samples): 1.77E+06 and 2.28E+06 and 2.53E+06 | N-Acyl-D-aspartate (C06380) metabolite signal [1]: 1.57E+05 and 1.16E+05 and 1.31E+05 | Poly-gamma-D-glutamate (C05723) metabolite signal [1]: 5.78E+07 and 6.19E+07 and 5.54E+07 | D-Ribitol 5-phosphate (C01068) metabolite signal [2]: 2.08E+04 and 2.67E+04 and 2.32E+04 | D-glucono-1,5-lactone (C00198) metabolite signal [2]: 3.06E+05 and 3.20E+05 and 3.38E+05 | L-Noradrenaline (C00547) metabolite signal [2]: 3.16E+04 and 3.80E+04 and 3.20E+04 | Oxalosuccinate (C05379) metabolite signal [2]: 9.37E+04 and 1.04E+05 and 9.63E+04 | Pyridoxamine (C00534) metabolite signal [2]: 1.68E+04 and 1.54E+04 and 2.58E+04 | Thioredoxin disulfide (C00343) metabolite signal [2]: 5.72E+04 and 1.02E+05 and 5.14E+04 | 1-4-beta-D-Xylan (metabolite signal) [3]: 1.97E+05 and 1.92E+05 and 2.09E+05 | 2-Hydroxyglutarate/Citramalate (C02630) metabolite signal [3]: 7.86E+04 and 5.69E+04 and 5.61E+04 | 5-6-Dihydrothymine (C00906) metabolite signal [3]: 2.50E+05 and 2.77E+05 and 2.96E+05 | 5-10-Methenyltetrahydrofolate (metabolite signal) [3]: 1.06E+05 (2×) and 7.96E+04 | 5-Hydroxyisourate (C11821) metabolite signal [3]: 1.50E+06 and 2.10E+06 and 4.21E+06 | 5-L-Glutamyl-taurine (metabolite signal) [3]: 1.11E+05 and 1.18E+05 and 1.16E+05 | 5-Oxoproline (metabolite signal) [3]: 8.27E+05 and 7.57E+05 and 7.14E+05 | (S)(+)-Allantoin (C02350) metabolite signal [3]: 1.72E+04 and 1.57E+04 and 2.62E+04 | Allantoate (C00499) metabolite signal [3]: 6.65E+05 and 5.04E+05 and 3.15E+05 | Ascorbate (metabolite signal) [3]: 1.17E+05 and 8.53E+04 and 8.00E+04 | CMP-N-acetylneuraminate (metabolite signal) [3]: 1.67E+04 and 8.29E+03 and 7.76E+03 | Carnosine (metabolite signal) [3]: 1.06E+05 and 9.45E+04 and 2.03E+05 | Citrate (C00158) metabolite signal [3]: 4.35E+04 and 3.82E+04 and 3.29E+04 | Creatine (metabolite signal) [3]: 2.46E+08 and 2.26E+08 and 2.23E+08 | Creatinine (metabolite signal) [3]: 2.77E+06 and 2.62E+06 and 2.87E+06 | Cys-Gly (metabolite signal) [3]: 2.32E+06 and 2.14E+06 and 1.32E+06 | D-Glucosamine (metabolite signal) [3]: 2.29E+05 and 1.27E+05 and 2.04E+05 | D-Glucose (C00031) metabolite signal [3]: 5.29E+06 and 5.04E+06 and 5.14E+06 | D-Ribose (C00121) metabolite signal [3]: 1.64E+05 and 1.19E+05 and 1.18E+05 | Dehydroascorbate (metabolite signal) [3]: 6.32E+04 and 5.87E+04 and 4.12E+04 | Dihydrofolate (metabolite signal) [3]: 3.00E+06 and 2.07E+06 and 9.85E+05 | Dimethylglycine (metabolite signal) [3]: 8.86E+05 and 1.02E+06 and 8.96E+05 | Diphosphate (C00013) metabolite signal [3]: 2.94E+04 and 3.31E+04 and 1.77E+04 | Fumarate (C00122) metabolite signal [3]: 1.04E+05 and 8.86E+04 and 8.87E+04 | Glutathione (C00051) metabolite signal [3]: 1.54E+08 and 1.50E+08 and 9.17E+07 | Glutathione disulfide (metabolite signal) [3]: 1.48E+05 and 9.64E+04 and 9.50E+04 | Hypoxanthine (C00262) metabolite signal [3]: 3.21E+04 and 1.66E+04 and 8.15E+03 | IMP (C00130) metabolite signal [3]: 1.58E+05 and 9.80E+04 and 1.96E+05 | Inosine (C00294) metabolite signal [3]: 6.71E+04 and 6.29E+04 and 6.63E+04 | L-Citrulline (metabolite signal) [3]: 2.74E+06 and 3.23E+06 and 3.99E+06 | L-Homoserine (metabolite signal) [3]: 2.34E+05 and 2.10E+05 and 2.35E+05 | Lactate (C01432) metabolite signal [3]: 9.22E+06 and 8.76E+06 and 8.98E+06 | Malate (C00149) metabolite signal [3]: 1.55E+05 and 1.07E+05 and 9.91E+04 | Mannitol (C00392) metabolite signal [3]: 1.01E+05 and 9.53E+04 and 1.38E+05 | N-Acetylneuraminate (metabolite signal) [3]: 2.25E+04 and 1.68E+04 and 2.38E+04 | N-Glycoloyl-neuraminate (metabolite signal) [3]: 1.23E+05 and 1.51E+05 and 1.32E+05 | NAD+ (C00003) metabolite signal [3]: 8.73E+04 and 4.11E+04 and 4.40E+04 | Nicotinamide (C00153) metabolite signal [3]: 3.46E+07 and 3.78E+07 and 4.86E+07 | Ornithine (metabolite signal) [3]: 1.57E+06 (2×) and 1.55E+06 | Oxaloacetate (C00036) metabolite signal [3]: 5.69E+04 and 5.42E+04 and 4.38E+04 | Phosphoserine (metabolite signal) [3]: 0.00E+00 (2×) and 3.46E+04 | Putrescine (metabolite signal) [3]: 4.96E+04 and 2.87E+04 and 4.23E+04 | Pyridoxal (C00250) metabolite signal [3]: 5.84E+04 and 5.75E+04 and 6.92E+04 | Pyruvate (C00022) metabolite signal [3]: 9.01E+05 and 7.95E+05 and 8.15E+05 | S-Glutathionyl-L-cysteine (metabolite signal) [3]: 1.18E+05 and 8.54E+04 and 7.69E+04 | Sedoheptulose 1-phosphate (C06222) metabolite signal [3]: 1.59E+04 and 1.93E+04 and 8.80E+03 | Spermidine (metabolite signal) [3]: 8.37E+06 and 7.92E+06 and 6.82E+06 | Spermine (metabolite signal) [3]: 1.09E+07 and 1.10E+07 and 8.00E+06 | Succinate (C00042) metabolite signal [3]: 7.45E+04 and 8.48E+04 and 5.74E+04 | Thymidine (C00214) metabolite signal [3]: 1.11E+04 and 1.24E+04 and 8.29E+03 | UDP (C00015) metabolite signal [3]: 2.25E+05 and 1.89E+05 and 1.40E+05 | UDP-N-acetyl-D-glucosamine (metabolite signal) [3]: 1.24E+04 and 7.59E+03 and 4.65E+03 | UDP-glucose (C00029) metabolite signal [3]: 2.38E+04 and 1.72E+04 and 9.18E+03 | Urate (C00366) metabolite signal [3]: 3.27E+04 and 2.94E+04 and 2.46E+04 | Xanthine (C00385) metabolite signal [3]: 2.31E+05 and 1.91E+05 and 1.90E+05 | alpha-D-Glucosamine 1-phosphate (metabolite signal) [3]: 4.45E+05 and 6.15E+05 and 8.58E+05 | alpha-D-Ribose 1-phosphate (C00620) metabolite signal [3]: 6.39E+04 and 6.67E+04 and 4.32E+04 | gamma-Glutamyl-gamma-aminobutyrate (metabolite signal) [3]: 7.63E+04 and 8.93E+04 and 1.06E+05 | gamma-L-Glutamyl-D-alanine (metabolite signal) [3]: 4.26E+04 and 3.07E+04 and 3.12E+04 | gamma-L-Glutamyl-L-cysteine (metabolite signal) [3]: 3.96E+04 and 5.76E+04 and 1.90E+04
